Legend:
[1] = system: MC3T3-E1 murine pre-osteoblast cells; test: Standard cell uptake assay: competition for uptake of ^14C-ascorbic acid; assay type: cell-based; settings: for IC50: Mus musculus, competition with ^14C-ascorbic acid uptake into MC3T3-E1 cells; for Competition: competition with 125 μM ^14C-ascorbic acid for uptake into MC3T3-E1 cells, 60 min
Description: Unlabelled ascorbic acid derivatives of the present invention have been tested for their ability to compete for uptake of ^14C-ascorbic acid into MC3T3-E1 cells, a murine pre-osteoblast cell line. MC3T3-E1 cells are grown in tissue culture plates and the appropriate assay solution containing a standard concentration of ^14C-ascorbic acid plus a competing concentration of ascorbic acid derivative added to each well. The amount of ^14C-ascorbic acid taken up by the cells in 60 min is then measured.
Standard Cell Uptake Assay
Transport buffer: 134 mM NaCl, 5.4 mM KCl, 1.8 mM CaCl2, 0.8 mM MgSO4, 20 mM HEPES, 10 mM glucose, pH7.3, stored at room temperature
Assay buffer: Transport buffer+40 μM […] ^14C-ascorbic acid (Amersham Pharmacia Biotech)
Stock solution: 50 μCi in 50 μl Analar water, stored at −20° C.
Assay solution: 200 nCi ^14C-ascorbic acid in 200 μl assay buffer/well (125 μM)
Stop buffer: 200 μM phloretin in assay buffer, chilled to 4° C.
Lysis solution: 0.1% SDS in Analar water
MC3T3-E1 murine pre-osteoblast cells were seeded in a 24-well plate at 2×10^5 cells/well in 1 ml minimal essential media plus 10% FCS, penicillin and streptomycin. Cells were grown overnight at 37° C., 5% CO2. Assay buffer and solutions were prepared on the morning of the assay. Cells were examined under the microscope for confluence and viability. Growth media was removed using a Liquipippette and each well washed with 2×200 μl assay buffer. The appropriate assay solution was added to each well and the plate incubated at 37° C. for the required time. To stop the reaction, 0.5 ml chilled stop buffer was added to each well. Each well was then washed with 0.5 ml stop buffer. Cells were lysed in 0.1% SDS solution for approximately 10 min and solutions transferred to scintillation vials. Each well was then washed with assay buffer and this wash solution also transferred to the appropriate scintillation vial. Scintillation fluid (5 ml) was added to each vial, the vials vortexed and counted on a Rackbeta counter.

[2] = system: mineralising nodules of primary rat osteoblasts; test: Autoradiography of mineralised bone nodules produced by cultured rat osteoblasts; assay type: cell-based; settings: 21-day culture period
Description: Foetus heads were collected and sprayed with 70% isopropanol. Calvaria were then removed by cutting the skin from the top of the head, making one incision through the calvaria from the external auditory meatus across behind the parietal bones and a second forward to above the eye sockets. When all the calvaria were isolated, they were rinsed with PBS (Ca^2+ and Mg^2+-free), then incubated in trypsin at 37° C. for 10 minutes. Calvaria were transferred into 0.2% collagenase (type II) in HBSS for 30 minutes at 37° C. This collagenase digestion was repeated for 60 minutes to release the osteoblast populations. Supernatant was removed and spun down to obtain a cell pellet. The pellet was resuspended in media, viable cells counted and plated out into a T75 flask. Once confluent, cells were subcultured into 6-multiwell plates at 2×10^4-2×10^5 cells/well in 3 ml medium containing 1 mM β-glycerophosphate. In addition ascorbic acid (50 μg/ml), ^14C-ascorbic acid (19.6 μCi/ml) or ^14C-compound 7 (2.8 μCi/ml) were incubated with osteoblasts over the culture period. Cells were fed two to three times per week and cultured for up to 21 days. Nodules became macroscopically visible at around 7-10 days and commenced mineralisation (assessed by Alizarin red staining) soon after. […]

[3] = reported in the literature; cited from earlier work

Row | IC50 [1] [µM] | Structure (SMILES) | Competition [1] | other results
1 | 1850 | O=C1OC(C(O)CSc2ccccc2)C(O)=C1O (stereo not drawn) [Compound 16] | Yes | competition for uptake of ^14C-ascorbic acid into MC3T3-E1 cells (text) [1]: competed; competition for uptake of ^14C-ascorbic acid into MC3T3-E1 cells (text) ([1]; listed as compound 16): very weak
2 |  | O=C1O[C@H]([C@@H](O)CO)C(O)=C1O [^14C-ascorbic acid] |  | association with / accumulation in mineralised bone nodules (autoradiography) [2]: associated with the mineralising nodules
3 | 258 | O=C1O[C@H]([C@@H](O)CO)C(O)=C1O [Ascorbic acid, ascorbic acid] | Yes | 
4 | 384 | O=C1O[C@H]([C@@H](O)COC(=O)c2ccc(I)cc2)C(O)=C1O [Compound 12, 6-O-(4-iodobenzoyl)-L-ascorbic acid] | Yes | 
5 |  | O=C1O[C@H]([C@@H](O)C[18F])C(O)=C1O [^18F-DFA, 6-deoxy-6-[^18F]fluoro-L-ascorbic acid] |  | bone uptake [3]: very low
6 | 796 | O=C(/C=C/I)OCC(O)C1OC(=O)C(O)=C1O (stereo not drawn) [Compound 15] | Yes | 
